According to patent publication US6573045B1, “Methods and kits for discovery of RNA-binding compounds” (Ribotargets, Ltd., priority 1998, dated 2003):
Values joined by “and” are separate entries in the source; they are usually repeats but may differ in a detail not shown here. Identical values can stand only once. Ends that are not written are not given here. * marks the point of attachment. TAMRA = tetramethylrhodamine (fluorescent label); DABCYL = CN(C)c1ccc(/N=N/c2ccc(C(=O)*)cc2)cc1

What was measured:
FAM-labelled TAR RNA = experiment: Quenching of FAM-labelled TAR RNA by unlabelled ADP-1 peptide; format: binding, HIV; conditions: 2 nM FAM-TAR
Description: The FAM-TAR was diluted from a 100 nM stock solution in TK buffer (50 mM Tris-HCl pH7.6, 20 mM KCl) to obtain a final assay concentration of 2 nM in 200 μl reaction volume. The unlabelled ADP-1 peptide was prepared in TK buffer as a 2 fold dilution series at 10 times the assay concentration and diluted 10 fold into the final assay volume (200 μl). After complex formation was performed for 20 minutes at room temperature the fluorescence-emission at 535 nm was determined in a Wallac Victor™ 1420 following excitation at 485 nm.
The level of fluorescence obtained in the absence of the unlabelled ADP-1 peptide is normalised to 100% and the levels of fluorescence obtained in the presence of the unlabelled ADP-1 peptide are expressed as a percentage of this value.

TAR RNA Duplex-2 = experiment: Competition binding assay, FAM-labelled TAR RNA Duplex-2 / TAMRA-labelled ADP-1; set-up: species or system HIV; conditions: saturating concentrations of ADP-1 competitor
From the text: In order to obtain efficient fluorescent resonance energy transfer and/or quenching it is important that the fluorescent groups are placed on the reporter and the target RNA to permit close contact between the donor and acceptors after complex formation. In this experiment the FAM group on the TAR RNA target (Duplex 2) has been displaced by the addition of a base pair. This alteration to the target RNA structure has the effect of increasing the distance of the FAM group from the binding site on the TAR RNA duplex by 2 Å more than the equivalent group on the TAR RNA Duplex 1 target. In addition, insertion of the base pair rotates the FAM group by 18° compared to the equivalent group in the Duplex-1 TAR RNA target.
Because Duplex-2 has a sub-optimal spacing of the FAM-label on TAR RNA it gives rise to a poor signal in the assay compared to Duplex-1, with a less than 50% rise in fluorescence in the presence of saturating concentrations of ADP-1 competitor.

TAR RNA = experiment: Competition binding assay, FAM-labelled TAR RNA Duplex-1 / TAMRA-labelled ADP-1; set-up: species or system HIV; conditions: 2 nM FAM-labelled TAR RNA, 18 nM unlabelled TAR RNA, 20 nM TAMRA-labelled ADP-1; read-out: Ki for the unlabelled ADP-1 competitor
Description: This experiment was performed with a starting condition in which there is an equimolar ratio of TAMRA-labelled ADP-1 peptide and TAR RNA (both labelled and unlabelled). A pre-mix is prepared on ice containing 2 nM FAM-labelled TAR RNA, 18 nM unlabelled TAR RNA and 20 nM TAMRA-labelled ADP-1 peptide diluted in TK buffer to provide the final concentrations (as detailed above) in each 200 μl reaction volume. The ADP-1 peptide was prepared as a 2 fold dilution series in TK buffer at 10 times the assay concentration and diluted 10 fold into the final assay volume. The competition assays were equilibrated for 15 minutes at room temperature and the fluorescence-emission spectra at 535 nm determined in a Wallac Victor™ 1420 following excitation at 485 nm.
Under these conditions, the Ki for the unlabelled ADP-1 competitor was measured as 100 nM.
TAMRA-labelled ADP-1 peptide and increasing concentrations of C5 cyclic peptide (SEQ ID 9). A pre-mix is prepared on ice containing the FAM-labelled TAR RNA, unlabelled TAR RNA and the TAMRA-labelled ADP-1 peptide diluted in TK buffer to provide the final concentrations (as detailed above) in each 200 μl reaction volume. The C5 cyclic peptide was prepared as a 2 fold dilution series in TK buffer at 10 times the assay concentration and diluted 10 fold in to the final assay volume.

RRE RNA = experiment: Dabcyl-peptide binding to Fam-labelled RNA (quenching), RRE; set-up: species or system HIV; conditions: RRE, 110 mM KCl
From the text: (§1) A representative subset comprising 40 peptide sequences from the total of 243 possible sequences was synthesised and is shown in Table 6. The peptides from the library are: No. 3 (SEQ ID NO:11), 4 (SEQ ID NO:12), 5 (SEQ ID NO:13), 6 (SEQ ID NO:14), 7 (SEQ ID NO:15), 8 (SEQ ID NO:16), 9 (SEQ ID NO:17), 10 (SEQ ID NO:18), 11 (SEQ ID NO:19), 12 (SEQ ID NO:20), 13 (SEQ ID NO:21), 14 (SEQ ID NO:22), 15 (SEQ ID NO:23), 16 (SEQ ID NO:24), 17 (SEQ ID NO:25), 18 (SEQ ID NO:26), 19 (SEQ ID NO:27), 20 (SEQ ID NO:28), 21 (SEQ ID NO:29), 22 (SEQ ID NO:30), 23 (SEQ ID NO:31), 24 (SEQ ID NO:32), 25 (SEQ ID NO:33), 26 (SEQ ID NO:34), 27 (SEQ ID NO:35), 28 (SEQ ID NO:36), 29 (SEQ ID NO:37), 30 (SEQ ID NO:38), 31 (SEQ ID NO:39), 32 (SEQ ID NO:40), 33 (SEQ ID NO:41), 34 (SEQ ID NO:42), 35 (SEQ ID NO:43), 36 (SEQ ID NO:44), 37 (SEQ ID NO:45), 38 (SEQ ID NO:46), 39 (SEQ ID NO:47), 40 (SEQ ID NO:48), 41 (SEQ ID NO:49), 42 (SEQ ID NO:50). These peptides were assayed for their ability to bind to range of RNA sequences carrying fluorescein attached to the 5′ end, as shown in FIG. 25.
(§2) FIG. 26. presents binding data for the peptide sequence 5 (KKQKR) (SEQ ID NO: 13) and the 4 RNA sequences. Reactions (100 μl) containing Fam-labelled RNA (10 nM) were mixed with increasing concentrations of Dabcyl-labelled ADP-1 peptide (up to 250 nM) in 50 mM Tris/Cl, pH7.4, 20 mM or 110 mM KCl (as indicated), 5 μg/ml BSA, 0.01% Triton X-100, 1% DMSO. Fluorescence (excitation 490 nm/emission at 535 nm) was determined using a Victor plate reader.
(§3) Dissociation constants were determined by fitting a binding isotherm (1-site-binding) to the data using the equation:
(§4) Y=((Fmax−Fmin)−((Fmax−Fmin)*X/(Kd+X)))+Fmin
(§5) where Fmax is fluorescence in the absence of quencher, Fmin is fluorescence at saturation, and X is peptide concentration.

FAM-TAR RNA = experiment: Quenching of FAM-TAR RNA by DABCYL-labelled ADP-1; format: binding, HIV; conditions: 20 nM FAM-TAR, FIG. 19
Description: It is also possible to place a fluorescent group on the RNA target and a quenching group on the reporter molecule. […] The DABCYL-ADP-1 was pre-treated in the presence of 1% TFA at room temperature for 5 minutes prior to dilution into binding buffer (0.01% Triton X-100, 5 μg/ml BSA, 1% DMSO, 50 mM Tris-HCl pH 7.6, 20 mM KCl) and incubated on ice prior to complex formation.
Reactions were equilibrated at room temperature for 15 minutes prior to analysis in the Wallac Victor2 plate reader. The reactions were excited at 485 nm and fluorescence emission recorded at 535 nm. The fluorescence emission signal of the 20 nM FAM-TAR is progressively quenched after addition of increasing amounts of DABCYL-ADP-1 peptide. The experimental data shown in FIG. 19 was analysed in GraphPad PRISMTM using a non linear regression fit for single site binding.

TAR bulge RNA = experiment: Dabcyl-peptide binding to Fam-labelled RNA (quenching), TAR; set-up: species or system HIV; conditions: 110 mM KCl
From the text: as §1, §2, §3, §4, §5

ss-19mer RNA = experiment: Dabcyl-peptide binding to Fam-labelled RNA (quenching), single stranded RNA; conditions: ss-19mer, 110 mM KCl
From the text: as §1, §2, §3, §4, §5

GTPase-LHL RNA = experiment: Dabcyl-peptide binding to Fam-labelled RNA (quenching), GTPase LHL; conditions: GTPase-LHL, 110 mM KCl
From the text: as §1, §2, §3, §4, §5

DABCYL-RRE RNA = experiment: Quenching of TAMRA-labelled Rev peptide by DABCYL-RRE RNA; format: binding, HIV; conditions: 20 nM TAMRA-Rev, increasing DABCYL-RRE, FIG. 21
Description: (§6) In the experiment shown in FIG. 21, 20 nM TAMRA-Rev was incubated with increasing concentrations of DABCYL-RRE. The TAMRA-Rev was pre-treated in the presence of 1% TFA at room temperature for 5 minutes prior to dilution in to storage buffer (0.01% Triton X-100, 5 μg/ml BSA, 1% DMSO, 50 mM Tris-HCl pH 8, 50 mM KCl) and incubated on ice prior to complex formation. Reactions were equilibrated at room temperature for 15 minutes prior to analysis in the Wallac Victor2 plate reader. The reactions were excited at 544 nm and fluorescence emission recorded at 570 nm. The fluorescence emission signal of the 20 nM TAMRA-Rev alone was subtracted from each signal obtained in the presence of increasing amounts of DABCYL-RRE and plotted as a function of DABCYL-RRE concentration (FIG. 21) in GraphPad PRISMTM using a non linear regression fit for single site binding.

DABCYL-TAR RNA = experiment: Quenching of TAMRA-labelled Rev peptide by DABCYL-TAR RNA; format: binding, HIV; conditions: 20 nM TAMRA-Rev, increasing DABCYL-TAR, FIG. 22
Description: as §6, with “20” for “In the experiment shown in FIG. 21, 20”, “DABCYL-TAR.” for “DABCYL-RRE.”, “into” for “in to”, “DABCYL-TAR” for “DABCYL-RRE”, “22)” for “21)”

[1] = biological target: FAM-labelled TAR RNA duplex 1; experiment: Quenching of FAM-labelled TAR RNA by TAMRA-labelled ADP-1 (complex formation); format: binding, HIV
Description: In this experiment, 2 nM FAM-labelled TAR RNA was mixed with increasing concentrations of TAMRA-labelled ADP-1 peptide. The FAM-TAR was diluted from a 100 nM stock solution in TK buffer (50 mM Tris-HCl pH 7.6, 20 mM KCl) to obtain a final assay concentration of 2 nM in 200 μl reaction volume. The TAMRA-labelled ADP-1 peptide was prepared in TK buffer as a 2-fold dilution series at 10 times the assay concentration and diluted 10 fold in to the final assay volume (200 μl). Complex formation was performed for 20 minutes at room temperature and the fluorescence-emission spectra at 535 nm determined in a Wallac Victor™ 1420 following excitation at 485 nm.
The level of fluorescence obtained in the absence of TAMRA-labelled ADP-1 peptide gave a fluorescence intensity of 2100 units. As the ADP-1 concentration is increased there is a progressive loss of fluorescence intensity detected, until at concentrations of ADP-1 greater than 100 nM there is over 80% loss of fluorescence intensity and there is no further quenching detected.

In the case of “ADP-1: unlabelled peptide derived from HIV Tat, residues 37 to 72 (SEQ ID NO: 7) (FTTKALGISYGRKKRRQRRRPPQGSGTHQVSLSKQ; Human immunodeficiency virus)”, the “quenching of the FAM group present on TAR RNA” value (FAM-labelled TAR RNA) is reported as at most 20%, the rise in fluorescence (TAR RNA Duplex-2) is reported as “less than 50%” and the Ki (TAR RNA) is reported as 100 nM.
In the case of “DABCYL-Phe-Thr-Thr-Lys-Ala-Leu-Gly-Ile-Ser-Tyr-Gly-Arg-Lys-Lys-Arg-Arg-Gln-Arg-Arg-Arg-Pro-Pro-Gln-Gly-Ser-Gln-Thr-His-Gln-Val-Ser-Leu-Ser-Lys-Gln ({DABCYL}-FTTKALGISYGRKKRRQRRRPPQGSQTHQVSLSKQ) [DABCYL-ADP-1]”, the Kd (RRE RNA) is reported as 39 nM, the Kd (FAM-TAR RNA) is reported as 33 nM and the Kd (TAR bulge RNA) is reported as 35 nM and 41 nM. For the same substance, the Kd (ss-19mer RNA) was 511 nM and the Kd (GTPase-LHL RNA) was 131 nM.
With “TAMRA-Asp-Thr-Arg-Gln-Ala-Arg-Arg-Asn-Arg-Arg-Arg-Arg-Trp-Arg-Glu Arg-Gln-Arg ({TAMRA}-DTRQARRNRRRRWRERQR) [TAMRA-Rev]” the Kd (DABCYL-RRE RNA) was 137 ± 23 nM and the Kd (DABCYL-TAR RNA) was 11000 nM.
For “TAMRA-Phe-Thr-Thr-Lys-Ala-Leu-Gly-Ile-Ser-Tyr-Gly-Arg-Lys-Lys-Arg-Arg-G ln-Arg-Arg-Arg-Pro-Pro-Gln-Gly-Ser-Gln-Thr-His-Gln-Val-Ser-Leu-Ser-Lys-Gln [TAMRA-labelled ADP-1]”, the Kd ([1]; 2 nM FAM-labelled TAR RNA, TK buffer, read-out: binding constant (Kd) of TAMRA-labelled ADP-1 for FAM-labelled TAR RNA duplex 1) was about 25 nM and the “loss of fluorescence intensity” value ([1]; concentrations of ADP-1 greater than 100 nM) was “over 80%”.
